Data on 7 compounds can be found in patent publication US10738083B2, “Influenza virus neutralizing peptidomimetic compounds” (Janssen Vaccines & Prevention B.V., priority 2015, dated 2020).

Assay [1] has as its target HA A/California/07/09 (H1) (Influenza A virus, UniProt C3W5X2). As to the kind of experiment: biochemical. It counts as binding. As to conditions: for koff: read-out: dissociation rate kd.
In assay [2] the target is T1, H1 HA A/California/07/2009 (Influenza A virus, UniProt C3W5X2). As to the kind of experiment: AlphaLISA binding competition, HA + head-binder (control). The source says:
(§1) Binding competition studies were designed to test compounds for competition with other well characterized HA binding proteins (including e.g. CR9114) with known epitopes on HA. The epitopes where either located at the stem of the HA (viral membrane proximal part of HA) or, for control purposes, at the head of HA (viral membrane distal part of HA). If competition was observed, it is assumed that both molecules bind to a similar or at least overlapping epitope at the surface of HA. Competition with a HA head- and stem-binder was interpreted as unspecific binding.
(§2) Hereto an AlphaLISA competition assay (Perkin Elmer) was established which relied on biotinylated full length and trimeric HA proteins (Protein Sciences, 10 μL, 0.5 nM final concentration in 50 μL) bound by HA-specific binders. The interaction between HA and the binder was detected after 1 h incubation at room temperature (RT) with two beads, a streptavidin donor bead recognizing HA (10 μL of 10 μg/mL) and an anti Fc bead (10 μg/mL) recognizing the IgGs used. If after an additional hour of incubation at RT the excited donor bead (680 nm) and acceptor bead are in close proximity, an energy transfer (singlet oxygen) can be measured as a luminescence signal of the acceptor bead (Perkin Elmer EnVision plate reader). The signal intensity in this homogeneous assay format is directly proportional to the binding strength (affinity/avidity) between both binding partners.

Assay [3] addresses H1 HA A/Brisbane/59/07 (Influenza A virus, UniProt D5F1Q8). The assay is described as follows: AlphaLISA binding competition, HA + stem-binder.
Source text: as §1, §2

Assay [4] has as its target T1, H1 HA A/California/07/2009. As to the kind of experiment: AlphaLISA binding competition, HA + stem-binder.
Source text: as §1, §2

Assay [5] addresses H1 HA A/New Caledonia/20/1999 (Influenza A virus, UniProt Q6WG00). As to the kind of experiment: AlphaLISA binding competition, HA + stem-binder.
Source text: as §1, §2

Assay [6] has as its target HA A/Vietnam/1194/04 (H5) (Influenza A virus, UniProt A5A5M5). As to the kind of experiment: biochemical. The assay is classed as binding. Conditions: for koff: read-out: dissociation rate kd.
Assay [7] has as its target HA A/New Caledonia/20/99 (H1) (Influenza A virus, UniProt Q6WG00). As to the kind of experiment: biochemical. The assay is classed as binding. Conditions: for koff: read-out: dissociation rate kd.

*1 amine or outer side, *2 acyl side, *3 side chain or, on linkers, in order; H or OH if unused. Where a SMILES comes first, the peptide text is derived from it. Bridges are numbered along the chain shown (N, C = ends). [ ]: non-standard residue; d: D form. Phe(3,4-Cl2) = N[C@@H](Cc1ccc(Cl)c(Cl)c1)C(=O)O; X2 = O=C(CN(CC(=O)[*:2])CC(=O)[*:3])[*:1]; X1 = NCCC(=O)N[C@@H](CN[*:2])C(=O)[*:1]; Ala(cPent) = N[C@@H](CC1CCCC1)C(=O)O; Glutaryl = O=C(CCCC(=O)[*:2])[*:1]; hhPhe = N[C@@H](CCCc1ccccc1)C(=O)O; NMeL = CN[C@@H](CC(C)C)C(=O)O; Orn = NCCC[C@H](N)C(=O)O; βAla = NCCC(=O)O Bounds are passed on as bounds.

Regarding `CC(=O)N[C@@H](CCCc1ccccc1)C(=O)N[C@H]1CCCNC(=O)CCNC(=O)[C@H](CO)NC(=O)[C@H](CC(C)C)NC(=O)[C@H](Cc2c[nH]c3ccccc23)NC(=O)[C@H](CCC(=O)O)NC(=O)[C@H](Cc2ccc(Cl)c(Cl)c2)NC(=O)[C@H](Cc2ccc(O)cc2)NC(=O)[C@H](CCC(=O)O)NC(=O)[C@H](CC(C)C)NC1=O` [CP141019] (Ac-[hhPhe][Orn]LEY[Phe(3,4-Cl2)]EWLS[βAla]; lactam 2-C), the Kd was 17 nM in assay [1], 31.6 nM in assay [6] and 17.8 nM in assay [7]. Moreover, the koff in assay [1] worked out at 0.182 s⁻¹; in assay [6] it was 0.0533 s⁻¹; in assay [7], 0.0589 s⁻¹. In addition, the IC50 in assay [2] is above 50.1 µM; in assay [3] it was 46.8 nM; in assay [4], 70.8 nM; in assay [5] it was 50.1 nM.

Consider `CC(=O)N[C@@H](CCCc1ccccc1)C(=O)N[C@H]1CCCNC(=O)CCNC(=O)[C@H](CO)NC(=O)[C@H](CC(C)C)NC(=O)[C@H](Cc2c[nH]c3ccccc23)NC(=O)[C@H](CCC(=O)O)NC(=O)[C@H](Cc2ccccc2)NC(=O)[C@H](Cc2ccc(O)cc2)NC(=O)[C@H](CCCNC(=N)N)NC(=O)[C@H](CC(C)C)NC1=O` [CP132070] (Ac-[hhPhe][Orn]LRYFEWLS[βAla]; lactam 2-C), for which the figures for the IC50 in assay [2], in assay [4] and in assay [5] were above 50.1 µM, 288 nM and 178 nM, respectively.

For the compound `CC(=O)N[C@@H](CCCc1ccccc1)C(=O)N[C@H]1CCCNC(=O)CCNC(=O)[C@H](CO)NC(=O)[C@H](CC(C)C)NC(=O)[C@H](Cc2c[nH]c3ccccc23)NC(=O)[C@H](CCC(=O)O)NC(=O)[C@H](Cc2ccccc2)NC(=O)[C@H](Cc2ccc(O)cc2)NC(=O)[C@H](CCC(=O)O)NC(=O)[C@H](CC2CCCC2)NC1=O` [CP141036] (Ac-[hhPhe][Orn][Ala(cPent)]EYFEWLS[βAla]; lactam 2-C), the IC50 is above 50.1 µM in assay [2], 145 nM in assay [3], 398 nM in assay [4] and 135 nM in assay [5].

Consider `CC(=O)N[C@@H](CCCc1ccccc1)C(=O)N[C@H]1CCCNC(=O)CCNC(=O)[C@H](CO)NC(=O)[C@H](CC(C)C)NC(=O)[C@H](Cc2c[nH]c3ccccc23)NC(=O)[C@H](CCC(=O)O)NC(=O)[C@H](Cc2ccccc2)NC(=O)[C@H](Cc2ccc(O)cc2)NC(=O)[C@H](CCC(=O)O)NC(=O)[C@H](CC(C)C)N(C)C1=O` [CP141037] (Ac-[hhPhe][Orn][NMeL]EYFEWLS[βAla]; lactam 2-C), for which the Kd is 61.7 nM in assay [1], 64.6 nM in assay [6] and 44.7 nM in assay [7]. Moreover, the koff in assay [1] came out at 0.184 s⁻¹; in assay [6], 0.0845 s⁻¹; in assay [7], 0.0753 s⁻¹. Further, the concentration for half-maximal inhibition (IC50) in assay [2] is above 50.1 µM; in assay [3], 87.1 nM; in assay [4] it was 204 nM; in assay [5], 81.3 nM.

For the compound `CC(=O)N[C@@H](CCCc1ccccc1)C(=O)N[C@H]1CCCNC(=O)[C@@H](NC(=O)CCN)CNC(=O)[C@H](CO)NC(=O)[C@H](CC(C)C)NC(=O)[C@H](Cc2c[nH]c3ccccc23)NC(=O)[C@H](CCC(=O)O)NC(=O)[C@H](Cc2ccccc2)NC(=O)[C@H](Cc2ccc(O)cc2)NC(=O)[C@H](CCC(=O)O)NC(=O)[C@H](CC(C)C)NC1=O` [CP141099] (Ac-[hhPhe][Orn]LEYFEWLS; linker 2-C via X1), the Kd in assay [1] is 26.3 nM; in assay [6], 27.5 nM; in assay [7] it was 25.1 nM. For the same compound, the koff in assay [1] was 0.252 s⁻¹; in assay [6], 0.0652 s⁻¹; in assay [7], 0.101 s⁻¹. Also, the IC50 was above 50.1 µM in assay [2], 67.6 nM in assay [3], 58.9 nM in assay [4] and 27.5 nM in assay [5].

`CC(=O)N[C@@H](CCCc1ccccc1)C(=O)N[C@H]1CCCNC(=O)CCNC(=O)[C@H](CO)NC(=O)[C@H](CC(C)C)NC(=O)[C@H](Cc2c[nH]c3ccccc23)NC(=O)[C@H](CCC(=O)O)NC(=O)[C@H](Cc2ccccc2)NC(=O)[C@H](Cc2ccc(O)cc2)NC(=O)[C@H](CCCCNC(=O)CCCC(=O)O)NC(=O)[C@H](CC(C)C)NC1=O` [CP141066] (Ac-[hhPhe][Orn]LK(Glutaryl)YFEWLS[βAla]; lactam 2-C): the IC50 in assay [2] is above 50.1 µM; in assay [4], 245 nM; in assay [5], 186 nM.

In the case of `CC(=O)N[C@@H](CCCNC(=N)N)C(=O)N[C@H]1CCCNC(=O)CN2CC(=O)NCCC[C@@H](C(N)=O)NC(=O)[C@H](CO)NC(=O)[C@H](CC(C)C)NC(=O)[C@H](Cc3c[nH]c4ccccc34)NC(=O)[C@H](CCC(=O)O)NC(=O)[C@H](Cc3ccccc3)NC(=O)[C@H](Cc3ccc(O)cc3)NC(=O)[C@H](CCCNC(=O)C2)NC(=O)[C@H](CC(C)C)NC1=O` [CP141032] (Ac-R[Orn]L[Orn]YFEWLS[Orn]-NH2; linker 2-4-11 via X2), the results for the IC50 in assay [2], in assay [4] and in assay [5] were above 50.1 µM, 9550 nM and 2240 nM, respectively.
